Read-outs that look alike come from different tables or passages of the source.
Key:
radish plants = test: Whole plant herbicidal bioassay on radish; format: in vivo; set-up: Control, Day-1 Reading, Replicate 1 / Control, Day-1 Reading, Replicate 2 / Control, Day-1 Reading, Replicate 3 / Control, Day-1 Reading, AVG / Control, Day-7 Reading, Replicate 1 / Control, Day-7 Reading, Replicate 2 / Control, Day-7 Reading, Replicate 3 / Control, Day-7 Reading, AVG: scale not given here; details: 10 mg/ml; for Control, Day-1 Reading, AVG / Control, Day-1 Reading, Replicate 1 / Control, Day-1 Reading, Replicate 2 / Control, Day-1 Reading, Replicate 3 / Control, Day-7 Reading, AVG / Control, Day-7 Reading, Replicate 1 / Control, Day-7 Reading, Replicate 2 / Control, Day-7 Reading, Replicate 3: foliar spray
Experimental: Healthy radish plants with two to three true leaves were selected for testing. The radish plants are 13 days old at treatment. The plants are sorted so that all treatments are equivalent in foliage surface area and plant height. The pots are labeled with treatment number and repetition number. Three repetitions per treatment are tested.
Ten fractions of MBI-206 formulated product are tested. The fractions are at a concentration of 10 mg/ml. The crude extracts of the formulated product and broth are also tested. An untreated control (treated with deionized water) and a positive control (RoundUp Super Concentrate at a rate of 2.5 fluid ounces per gallon) are included in the test.
All products and treatments are well shaken prior to application. Treatments are applied using a nozzle from a 2-ounce spray bottle. Separate spray nozzles were used for each treatment. […] Two milliliters of each treatment are sprayed simultaneously over the three repetitions of each treatment so that each plant is treated with approximately 0.67 milliliters of treatment solution.
The plants are allowed to air dry and are then randomized in holding trays. Each tray is labeled with the experiment name and treatment date and placed on the laboratory greenhouse shelves. The laboratory greenhouse maintains a temperature of 70-80° F. and a relative humidity of 30-40%. Throughout the bioassay, plants are watered from below by filling the holding trays with an appropriate amount of water so that plant foliage remained dry.
Symptoms included foliage burning and plant stunting. The following rating scale, shown in Table 4 is used to quantify efficacy. Ratings are determined by observing the following factors relative to the plants of the untreated control: overall plant health, average plant height, and foliage health. Symptoms of affected plants may include discolored/spotted/burnt/bleached foliage, warped/twisted/curled leaves, side branching (due to damaged apical meristem), plant dieback, or death.
The pure compounds (butyl paraben [MBI206-FP-F5H32] and hexyl paraben [MBI206-FP-F5H40]) obtained from fraction 5 were tested at a concentration of 10 mg/ml. An untreated control (treated with deionized water), the formulation blank (at 3% v/v & 10% v/v), and a positive control (RoundUp Super Concentrate at a rate of 2.5 fluid ounces per gallon) are included in the test.

[1] = tested on: Beet Armyworm (Spodoptera exigua); test: 96-well diet overlay assay with 1st instar Beet Armyworm larvae; format: in vivo; details: for mortality at 40 µg/disc: Spodoptera exigua
Experimental: The insecticidal activity of butyl paraben (MBI206-FP-F5H32) and hexyl paraben (MBI206-FP-F5H40) were tested in a laboratory assay using a 96-well diet overlay assay with 1st instar Beet Armyworm (Spodoptera exigua) larvae using microtiter plates with 200 ul of solid, artificial Beet Armyworm diet in each well. One hundred (100) microliters of each test sample (containing 40 ug of sample) is pipetted on the top of the diet (one sample in each well), and the sample is let dry under flowing air until the surface is dry. Each sample was tested in six replicates, and water and a commercial Dipel product are used as negative and positive controls, respectively. One first instar larvae of the test insect (Beet armyworm—Spodoptera exigua) was placed in each well, and the plate was covered with plastic cover with airholes. The plates with insects were incubated at 26° C. for 6 days with daily mortality evaluations.

M. incognita [2] = test: In vitro 96-well nematode immobility bioassay, trial T1; format: in vivo; details: 3 μl of 20 mg/ml to 50 μl, 24 hour, 25° C
Experimental: (§1) The pure sample of butyl paraben and hexyl paraben was used in an in vitro 96-well plastic cell-culture plate bioassay. 15-20 nematodes in a 50 μl water solution were exposed to 3 μl of a 20 mg/ml peak concentrate for a 24 hour period at 25° C. Once the incubation period was completed, results were recorded based on a visual grading of immobility of the juvenile nematodes (J2's) in each well treated with compounds; each treatment was tested in replicate of 4 wells. […] Three controls are included in each trial; 1 positive (1% Avid) & 2 negative (DMSO & water). Trials (T1) was carried out using M. incognita nematodes and trail (T2) was carried out using M. hapla nematodes, the samples were dissolved in 100% DMSO.

M. hapla = test: In vitro 96-well nematode immobility bioassay, trial T2; format: in vivo; details: 3 μl of 20 mg/ml to 50 μl, 24 hour, 25° C
Experimental: as §1

[3] = tested on: M. incognita and M. hapla; test: In vitro 96-well nematode immobility bioassay, mean of trials T1 and T2; format: in vivo; details: 3 μl of 20 mg/ml to 50 μl, 24 hour, 25° C
Experimental: as §1

[4] = tested on: Chlamydomonas reinhardtii; test: Control of Chlamydomonas reinhardtii by purified compounds, fluorescence at 680 nm; format: cell-based; details: 72 hours
Experimental: Purified compounds from Burkholderia sp. fermentation broth was tested for algaicidal activity against Chlamydomonas reinhardtii. An increasing volume of the purified compounds (20 mg/mL in ethanol) was added to a clear 48 well polystyrene plate with 750 micro liters of the specified algae growing. Each treatment was done in two replicates and the solvent used as a negative control. The plate was closed with a lid and incubated for 72 hours under constant light at room temperature. After 72 hours the fluorescence (at 680 nm) of the suspension in each well was measured using a SpectraMax M2 plate reader, and the reduction in fluorescence compared with the negative control was converted into percent control of algal growth. Each sample was visually compared to the negative control; a well that was visually clearer than the negative control was scored as active. […] Tests were run in two replicates and %. Control was calculated as a reduction of fluorescence at 680 nm compared with the negative control. Each sample was visually compared to the negative control; a well that was visually clearer than the negative control was scored as active.

Lygus hesperus = test: 12 well plate treated green beans bioassay, Lygus hesperus late 2nd/early 3rd instar; format: in vivo; details: Lygus hesperus; green beans dipped in 0.25 mg/mL; scored at 24, 48 and 120 hours
Experimental: The insecticidal activity of the four compounds, templamide A, templamide B, FR901465 & FR901228 isolated from Burkholderia were tested in a laboratory assay using a 12 well plate with treated green beans bioassay system. The compound was dissolved in 100% ethanol to concentrations of […] and 500 μL of this sample was added to 3.5 mL of water to make a total volume of 4 mL containing 0.25 mg/mL concentration of the compound. Green beans were washed earlier in bleach solution and then sat in water to rinse. Beans were dried before using and then were cut with scissors to fit into wells of 12-well plate. With the help of forceps the beans were dunked into a 15 mL plastic falcon tube containing each treatment and then submerged in treatment for exactly one min. one bean part was put into each well and then individual late 2nd/early 3rd instar Lygus hesperus, were placed in wells with help of brush. Plate sealer was used to cover tray and hole poked into the plate sealer for aeration. The numbers of Lygus/well were counted and plates were placed on brench top. Larvae were scored at 24, 48 and 120 hours after application. […] The positive control used in this testing was Avid (Avemectin) at the rate of 13 μL/10 mL.

[5] = tested on: Free living nematodes (FLN); test: In vitro 96-well nematode immobility bioassay of FR901228, trial T1; format: in vivo; details: 3 μl of 20 mg/ml to 50 μl, 24 hour, 25 C
Experimental: (§2) The pure sample of FR 901228 was tested using an in vitro 96-well plastic cell-culture plate bioassay. 15-20 nematodes in a 50 μl water solution were exposed to 3 μl of a 20 mg/ml solution of FR 901228 for a 24 hour period at 25 C. Once the incubation period was completed, results were recorded based on a visual grading of immobility of the juvenile nematodes (J2's) in each well treated with compounds; each treatment was tested in replicate of 4 wells. Three controls are included in each trial; 1 positive (1% Avid) & 2 negative (DMSO & water). Trials (T1) was carried out using Free living nematodes (FLN) and trail (T2) was carried out using M. incognita nematodes, the samples were dissolved in 100% DMSO.

M. incognita [6] = test: In vitro 96-well nematode immobility bioassay of FR901228, trial T2; format: in vivo; details: 3 μl of 20 mg/ml to 50 μl, 24 hour, 25 C
Experimental: as §2

[7] = tested on: milkweed bugs (Oncopeltus fasciatus); test: Sucking contact bioassay on milkweed bugs; format: in vivo; details: 1 μL of 1 mg/mL in ethanol onto abdomen of 4th instar; scored at 4 and 7 day
Experimental: The insecticidal activity of the pure compounds templamide B (MBI 206; MW 537), FR 901465 (MBI 206; MW 523) and FR901228 (MBI 206; MW 540) were tested in a laboratory assay using a sucking contact bioassay system. The compounds were dissolved in 100% ethanol to concentrations of 1 mg/mL. Individual 4th instar milkweed bugs, penultimate nymph, larvae were placed in 5C Rubbermaid container with 2 sunflower seeds in each tub and 1 water cup (water in contact cup with cotton wick) into each tub. A Hamilton Micropipette was used to apply 1 μL (1 drop) of compound onto abdomen of milkweed bugs (MWB) of each larvae. Tubs were place into the Rubbermaid container and cap with mesh lid. Eight larvae per sample were treated. The assay was incubated at 25° C., 12 h light/12 h dark. Larvae were scored at 4 and 7 day after application. […] Thus, FR 901465 provided a better (87.5%) control of milkweed bugs, than FR 901228 (MW 540) and templamide B (FIG. 4).

[8] = 72 h, read-out: Insecticidal bioassay data (mortality), Day 3
[9] = 96 h, read-out: Insecticidal bioassay data (mortality), Day 4
[10] = 5 μL of sample (20 mg/mL in ethanol) per 750 μL of algae
[11] = 5 μL of sample per 750 μL of algae
[12] = 11 μL of sample (20 mg/mL in ethanol) per 750 μL of algae
[13] = 11 μL of sample per 750 μL of algae
[14] = 22.5 μL of sample (20 mg/mL in ethanol) per 750 μL of algae
[15] = 22.5 μL of sample per 750 μL of algae, well visually clearer than negative control scored as active

Compound	Control, Day-1 Reading, AVG (radish plants)	Control, Day-1 Reading, Replicate 1 (radish plants)	Control, Day-1 Reading, Replicate 2 (radish plants)	Control, Day-1 Reading, Replicate 3 (radish plants)	Control, Day-7 Reading, AVG (radish plants)	Control, Day-7 Reading, Replicate 1 (radish plants)	Control, Day-7 Reading, Replicate 2 (radish plants)	Control, Day-7 Reading, Replicate 3 (radish plants)	mortality at 40 µg/disc [1, 8]	mortality at 40 µg/disc [1, 9]	% immobility (trial # T1) (M. incognita [2])	immobility against M. incognita (M. incognita [2])	% immobility (trial # T2) (M. hapla)	Mean % immobility [3]	% Control [4, 10]	Visual [4, 11]	% Control [4, 12]	Visual [4, 13]	% Control [4, 14]	Visual [4, 15]	also measured
CCCCOC(=O)c1ccc(O)cc1 [Butyl paraben, butyl paraben]	18.3	25	5	25	24.2	25	10	37.5	8.93%	8.93%	75%	81.25%	87.5%	81.25%	–	–	–	–	–	–	mortality ([1]; 40 ug of sample per well, text summary of Table 7): 9%
C/C=C1\NC(=O)[C@H]2CSSCC/C=C/[C@H](CC(=O)N[C@H](C(C)C)C(=O)N2)OC(=O)[C@H](C(C)C)NC1=O [FR901228]	–	–	–	–	–	–	–	–	–	–	–	–	–	–	89.48%	Active	99.36%	Active	98.71%	Active	mortality at 250 µg/mL (Lygus hesperus): 51.7%; immobility [5]: 75%; immobility (M. incognita [6]): 75%
CC(=O)OC(C)/C=C\C(=O)NC1CC(C)C(C/C=C(C)/C=C/C2OC(C)(O)C(O)C3(CO3)C2O)OC1C (centres unmarked) [FR901465]	–	–	–	–	–	–	–	–	–	–	–	–	–	–	−86.58%	Not Active	−33.58%	Not Active	−3.887%	Not Active	control of milkweed bugs [7]: 87.5%; mortality at 250 µg/mL (Lygus hesperus): 91.2%
CCCCCCOC(=O)c1ccc(O)cc1 [Hexyl paraben, hexyl paraben]	75.0	75	75	75	87.5	87.5	87.5	87.5	50%	70.8%	87.5%	93.75%	100%	93.75%	–	–	–	–	–	–	herbicidal potency in words (radish plants; compared with butyl paraben): most potent herbicidal compound

Source: US20140221207A1, “ISOLATED BACTERIAL STRAIN OF THE GENUS BURKHOLDERIA AND PESTICIDAL METABOLITES THEREFROM- FORMULATIONS AND USES” (MARRONE BIO INNOVATIONS, INC., priority 2011, published 2014)
